Source: ChEMBL document CHEMBL1201862, “PubChem BioAssay data set” (2004)
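Values below derive from 48-hour exposures of cells grown in 96-well plates, with endpoints linearly interpolated between the two concentrations bracketing the appropriate inhibition level. At the GI50, growth is halved.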 Calls of active or inactive are those of the source. No stated cut-off is given here; in the data, active = GI50 up to about 1.1 µM and inactive = higher.

Columns and labels:
Assay in all cases: NCI tumour cell line growth inhibition, 48 h
[1] = test system: 786-0
[2] = test system: A498
[3] = test system: A549
[4] = test system: ACHN
[5] = test system: BT-549
[6] = test system: CAKI-1
[7] = test system: CCRF-CEM
[8] = test system: COLO 205
[9] = test system: DU-145
[10] = test system: EKVX
[11] = test system: HCT-116
[12] = test system: HCT-15
[13] = test system: HL-60
[14] = test system: HOP-62
[15] = test system: HOP-92
[16] = test system: HT-29
[17] = test system: Hs-578T
[18] = test system: IGROV-1
[19] = test system: K562
[20] = test system: KM12
[21] = test system: LOX IMVI
[22] = test system: M14
[23] = test system: MCF7
[24] = test system: MDA-MB-231
[25] = test system: MDA-MB-435
[26] = test system: MDA-N
[27] = test system: MOLT-4
[28] = test system: Malme-3M
[29] = test system: NCI-H226
[30] = test system: NCI-H23
[31] = test system: NCI/ADR-RES
[32] = test system: OVCAR-3
[33] = test system: OVCAR-4
[34] = test system: OVCAR-5
[35] = test system: OVCAR-8
[36] = test system: PC-3
[37] = test system: RPMI-8226
[38] = test system: RXF 393
[39] = test system: SF-268
[40] = test system: SF-295
[41] = test system: SF-539
[42] = test system: SK-MEL-28
[43] = test system: SK-MEL-2
[44] = test system: SK-MEL-5
[45] = test system: SK-OV-3
[46] = test system: SN12C
[47] = test system: SNB-19
[48] = test system: SR
[49] = test system: SW-620
[50] = test system: T47D
[51] = test system: TK-10
[52] = test system: U-251
[53] = test system: UACC-257
[54] = test system: UACC-62
[55] = test system: UO-31
[56] = test system: HCC 2998
[57] = test system: NCI-H460
[58] = test system: SNB-75
[59] = test system: NCI-H522

## COC(=O)C12OC3CO[Si](C(C)C)(C(C)C)O[Si](C(C)C)(C(C)C)OC3C1Oc1nc(=O)ccn12 (stereo not given)
[1]
  GI50: 17.7 µM (inactive)
[2]
  GI50: 23.7 µM (inactive)
[3]
  GI50: 15.2 µM (inactive)
[4]
  GI50: 17.9 µM (inactive)
[5]
  GI50: 18.2 µM (inactive)
[6]
  GI50: 17.7 µM (inactive)
[7]
  GI50: 17.3 µM (inactive)
[8]
  GI50: 18.7 µM (inactive)
[9]
  GI50: 18.5 µM (inactive)
[10]
  GI50: 16.7 µM (inactive)
[11]
  GI50: 16.1 µM (inactive)
[12]
  GI50: 16.5 µM
[13]
  GI50: 23.4 µM (inactive)
[14]
  GI50: 18.1 µM (inactive)
[15]
  GI50: 14.3 µM (inactive)
[16]
  GI50: 15.4 µM (inactive)
[17]
  GI50: < 0.01 µM (active)
[18]
  GI50: 11.6 µM (inactive)
[19]
  GI50: 15.4 µM (inactive)
[20]
  GI50: 15.7 µM (inactive)
[21]
  GI50: 17.4 µM (inactive)
[22]
  GI50: 17.8 µM (inactive)
[23]
  GI50: 16 µM (inactive)
[24]
  GI50: 15.5 µM (inactive)
[25]
  GI50: 17.1 µM (inactive)
[26]
  GI50: 18 µM (inactive)
[27]
  GI50: 12.1 µM (inactive)
[28]
  GI50: 14.8 µM (inactive)
[29]
  GI50: 15.8 µM (inactive)
[30]
  GI50: 15.5 µM (inactive)
[31]
  GI50: 15.6 µM (inactive)
[32]
  GI50: 15.8 µM (inactive)
[33]
  GI50: 17.1 µM (inactive)
[34]
  GI50: 15.2 µM (inactive)
[35]
  GI50: 15.5 µM (inactive)
[36]
  GI50: 15.3 µM (inactive)
[37]
  GI50: 13.7 µM (inactive)
[38]
  GI50: 16.6 µM (inactive)
[39]
  GI50: 12 µM (inactive)
[40]
  GI50: 16 µM (inactive)
[41]
  GI50: 16.4 µM (inactive)
[42]
  GI50: 16.7 µM (inactive)
[43]
  GI50: 17.1 µM (inactive)
[44]
  GI50: 16.2 µM (inactive)
[45]
  GI50: 17.3 µM (inactive)
[46]
  GI50: 17.9 µM (inactive)
[47]
  GI50: 17.3 µM (inactive)
[48]
  GI50: 15 µM (inactive)
[49]
  GI50: 16 µM (inactive)
[50]
  GI50: 18.8 µM (inactive)
[51]
  GI50: 17.1 µM (inactive)
[52]
  GI50: 16.1 µM (inactive)
[53]
  GI50: 15.6 µM (inactive)
[54]
  GI50: 14.3 µM (inactive)
[55]
  GI50: 16.3 µM (inactive)

## O=C(c1ccccc1)c1ccc(N2C(=O)/C(=C/c3ccccc3S)N=C2c2ccccc2)c(N2C(=O)/C(=C/c3ccccc3S)N=C2c2ccccc2)c1
[1]
  GI50: > 100 µM (inactive)
[2]
  GI50: 60.7 µM (inactive)
[3]
  GI50: 33.2 µM (inactive)
[4]
  GI50: 60.4 µM (inactive)
[5]
  GI50: 49.3 µM (inactive)
[6]
  GI50: > 100 µM (inactive)
[7]
  GI50: 22.2 µM (inactive)
[8]
  GI50: 60.1 µM (inactive)
[9]
  GI50: 59 µM (inactive)
[10]
  GI50: > 100 µM (inactive)
[56]
  GI50: 35.7 µM (inactive)
[11]
  GI50: 66.4 µM (inactive)
[12]
  GI50: 53.3 µM
[13]
  GI50: 11.8 µM (inactive)
[14]
  GI50: 40.7 µM (inactive)
[15]
  GI50: > 100 µM (inactive)
[16]
  GI50: 86.5 µM (inactive)
[17]
  GI50: 35 µM (inactive)
[18]
  GI50: 46.9 µM (inactive)
[19]
  GI50: 48.9 µM (inactive)
[20]
  GI50: 33.3 µM (inactive)
[21]
  GI50: 24.9 µM (inactive)
[22]
  GI50: 38.2 µM (inactive)
[23]
  GI50: 45.6 µM (inactive)
[24]
  GI50: > 100 µM (inactive)
[25]
  GI50: 19.6 µM (inactive)
[26]
  GI50: 36.5 µM (inactive)
[27]
  GI50: 21.4 µM (inactive)
[57]
  GI50: 47.6 µM (inactive)
[31]
  GI50: 32.4 µM (inactive)
[32]
  GI50: 20.1 µM (inactive)
[33]
  GI50: 38.3 µM (inactive)
[34]
  GI50: > 100 µM (inactive)
[35]
  GI50: 27.8 µM (inactive)
[36]
  GI50: 42.6 µM (inactive)
[37]
  GI50: 21.9 µM (inactive)
[39]
  GI50: 39.9 µM (inactive)
[40]
  GI50: 46.6 µM (inactive)
[41]
  GI50: 21.3 µM (inactive)
[42]
  GI50: > 100 µM (inactive)
[43]
  GI50: 22.7 µM (inactive)
[44]
  GI50: 29.4 µM (inactive)
[45]
  GI50: > 100 µM (inactive)
[46]
  GI50: > 100 µM (inactive)
[47]
  GI50: 41.5 µM (inactive)
[58]
  GI50: 21.2 µM (inactive)
[48]
  GI50: 30.5 µM (inactive)
[49]
  GI50: 43.2 µM (inactive)
[50]
  GI50: 43.3 µM (inactive)
[51]
  GI50: > 100 µM (inactive)
[52]
  GI50: 25.2 µM (inactive)
[53]
  GI50: > 100 µM (inactive)
[54]
  GI50: 49.4 µM (inactive)
[55]
  GI50: 84.5 µM (inactive)

## Nc1cc(N)cc(Cc2ccccc2)c1
[1]
  GI50: > 100 µM (inactive)
[2]
  GI50: > 100 µM (inactive)
[3]
  GI50: > 100 µM (inactive)
[4]
  GI50: > 100 µM (inactive)
[5]
  GI50: > 100 µM (inactive)
[6]
  GI50: > 100 µM (inactive)
[7]
  GI50: > 100 µM (inactive)
[8]
  GI50: > 100 µM (inactive)
[9]
  GI50: > 100 µM (inactive)
[10]
  GI50: > 100 µM (inactive)
[56]
  GI50: > 100 µM (inactive)
[11]
  GI50: > 100 µM (inactive)
[12]
  GI50: > 100 µM
[13]
  GI50: > 100 µM (inactive)
[14]
  GI50: > 100 µM (inactive)
[15]
  GI50: > 100 µM (inactive)
[16]
  GI50: > 100 µM (inactive)
[17]
  GI50: > 100 µM (inactive)
[18]
  GI50: > 100 µM (inactive)
[19]
  GI50: > 100 µM (inactive)
[20]
  GI50: > 100 µM (inactive)
[21]
  GI50: > 100 µM (inactive)
[22]
  GI50: > 100 µM (inactive)
[23]
  GI50: > 100 µM (inactive)
[24]
  GI50: > 100 µM (inactive)
[25]
  GI50: > 100 µM (inactive)
[26]
  GI50: > 100 µM (inactive)
[27]
  GI50: > 100 µM (inactive)
[28]
  GI50: > 100 µM (inactive)
[29]
  GI50: > 100 µM (inactive)
[30]
  GI50: > 100 µM (inactive)
[57]
  GI50: > 100 µM (inactive)
[59]
  GI50: > 100 µM (inactive)
[31]
  GI50: > 100 µM (inactive)
[32]
  GI50: > 100 µM (inactive)
[33]
  GI50: > 100 µM (inactive)
[34]
  GI50: > 100 µM (inactive)
[35]
  GI50: > 100 µM (inactive)
[36]
  GI50: > 100 µM (inactive)
[38]
  GI50: > 100 µM (inactive)
[39]
  GI50: > 100 µM (inactive)
[40]
  GI50: > 100 µM (inactive)
[41]
  GI50: > 100 µM (inactive)
[42]
  GI50: > 100 µM (inactive)
[43]
  GI50: > 100 µM (inactive)
[44]
  GI50: > 100 µM (inactive)
[45]
  GI50: > 100 µM (inactive)
[46]
  GI50: > 100 µM (inactive)
[47]
  GI50: > 100 µM (inactive)
[48]
  GI50: > 100 µM (inactive)
[49]
  GI50: > 100 µM (inactive)
[50]
  GI50: > 100 µM (inactive)
[51]
  GI50: > 100 µM (inactive)
[52]
  GI50: > 100 µM (inactive)
[53]
  GI50: > 100 µM (inactive)
[55]
  GI50: > 100 µM (inactive)
